According to the supplement of paper PMC10307832:

How the values were obtained:
Experiment in all cases: relative viability (nuclei count vs DMSO), 5 days (fraction); higher = more cells survive
AZ505 + Alpelisib = compound: C1CCC(CC1)N(CCNCCC2=C3C(=C(C=C2)O)NC(=O)CO3)C(=O)CCNCCC4=CC(=C(C=C4)Cl)Cl [AZ505] + Cc1nc(NC(=O)N2CCC[C@H]2C(N)=O)sc1-c1ccnc(C(C)(C)C(F)(F)F)c1 [Alpelisib] (partner 2 µM)
Summary of the method: (§1)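 A single step with final 0.05% Triton X-100, 1% formaldehyde and 1 ug/ml Hoechst fixed the cells and stained nuclei 5 days after treatment. Lung cancer cell lines in 1536-well plates had been treated by pin tool the day after seeding with one drug alone or a fixed anchor-drug dose plus five library-drug doses (not always all listed) in √10 steps, and nuclei were counted on 4× images. Relative viability is the ratio of nuclei in treated wells to nuclei in vehicle wells, taken as the median of duplicate plates.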

Dactolisib + Linsitinib = compound: Cn1c(=O)n(-c2ccc(C(C)(C)C#N)cc2)c2c3cc(-c4cnc5ccccc5c4)ccc3ncc21 [Dactolisib] + C[C@]1(O)C[C@@H](c2nc(-c3ccc4ccc(-c5ccccc5)nc4c3)c3c(N)nccn32)C1 [Linsitinib] (partner 1 µM)
Summary of the method: as §1

Dactolisib + Dasatinib = compound: Cn1c(=O)n(-c2ccc(C(C)(C)C#N)cc2)c2c3cc(-c4cnc5ccccc5c4)ccc3ncc21 [Dactolisib] + Cc1nc(Nc2ncc(C(=O)Nc3c(C)cccc3Cl)s2)cc(N2CCN(CCO)CC2)n1 [Dasatinib] (partner 0.075 µM)
Summary of the method: as §1

AZ505 + Vorinostat = compound: C1CCC(CC1)N(CCNCCC2=C3C(=C(C=C2)O)NC(=O)CO3)C(=O)CCNCCC4=CC(=C(C=C4)Cl)Cl [AZ505] + O=C(CCCCCCC(=O)Nc1ccccc1)NO [Vorinostat] (partner 1 µM)
Summary of the method: as §1

## UMC-11
AZ505 + Alpelisib; first compound 0.08 µM
  relative viability: 0.936
AZ505 + Alpelisib; first compound 0.253 µM
  relative viability: 1.13
AZ505 + Alpelisib; first compound 0.8 µM
  relative viability: 0.899
AZ505 + Alpelisib; first compound 2.53 µM
  relative viability: 0.827
AZ505 + Alpelisib; first compound 8 µM
  relative viability: 1.04
Dactolisib + Linsitinib; first compound 0.002 µM
  relative viability: 1.02
Dactolisib + Linsitinib; first compound 0.006325 µM
  relative viability: 0.987
Dactolisib + Linsitinib; first compound 0.02 µM
  relative viability: 0.671
Dactolisib + Linsitinib; first compound 0.06325 µM
  relative viability: 0.286
Dactolisib + Linsitinib; first compound 0.2 µM
  relative viability: 0.262
Dactolisib + Dasatinib; first compound 0.002 µM
  relative viability: 0.496
Dactolisib + Dasatinib; first compound 0.006325 µM
  relative viability: 0.419
Dactolisib + Dasatinib; first compound 0.02 µM
  relative viability: 0.37
Dactolisib + Dasatinib; first compound 0.06325 µM
  relative viability: 0.253
Dactolisib + Dasatinib; first compound 0.2 µM
  relative viability: 0.219
AZ505 + Vorinostat; first compound 0.08 µM
  relative viability: 0.371
AZ505 + Vorinostat; first compound 0.253 µM
  relative viability: 0.433
AZ505 + Vorinostat; first compound 0.8 µM
  relative viability: 0.367
AZ505 + Vorinostat; first compound 2.53 µM
  relative viability: 0.434
AZ505 + Vorinostat; first compound 8 µM
  relative viability: 0.397
